Test results taken from patent publication US10294202B2, “Pyrrolidinones as herbicides” (FMC Corporation, priority 2013, dated 2019).

Tests used:
[1] = system: nutsedge, yellow; assay: Test C pre-/postemergence herbicide test; assay type: in vivo, Cyperus esculentus
Summary of the method: (§1)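 Pre- and postemergence greenhouse screen. Preemergence treatment went onto freshly planted seeds in loam–sand soil; postemergence treatment went onto plants 2 to 18 cm tall at the 1- to 4-leaf stage in sphagnum peat/vermiculite medium. Scoring at 13 to 15 days used a 0–100 control scale.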

[2] = system: rice; assay: Test B flooded paddy test; assay type: in vivo, Oryza sativa; details: 250 g ai/ha, Flood; scale of 0 to 100 where 0 is no effect and 100 is complete control
Summary of the method: (§2)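 Plants were grown to the 2-leaf stage, then pots were flooded to 3 cm above the soil and compound was applied directly into the paddy water, with that depth held throughout. After 13 to 15 days in a greenhouse, injury was rated visually against untreated controls on a 0 to 100 scale (100 = complete control).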

[3] = system: barnyardgrass; assay: Test B flooded paddy test; assay type: in vivo, Echinochloa crus-galli; details: 250 g ai/ha, Flood; scale of 0 to 100 where 0 is no effect and 100 is complete control
Summary of the method: as §2

[4] = system: johnsongrass; assay: Test C pre-/postemergence herbicide test; assay type: in vivo, Sorghum halepense
Summary of the method: as §1

[5] = system: soybean; assay: Test C pre-/postemergence herbicide test; assay type: in vivo, Glycine max
Summary of the method: as §1

[6] = system: sedge, umbrella; assay: Test B flooded paddy test; assay type: in vivo, Cyperus difformis; details: 250 g ai/ha, Flood; scale of 0 to 100 where 0 is no effect and 100 is complete control
Summary of the method: as §2

[7] = system: pigweed; assay: Test C pre-/postemergence herbicide test; assay type: in vivo, Amaranthus retroflexus
Summary of the method: as §1

[8] = system: ducksalad; assay: Test B flooded paddy test; assay type: in vivo, Heteranthera limosa; details: 250 g ai/ha, Flood; scale of 0 to 100 where 0 is no effect and 100 is complete control
Summary of the method: as §2

[9] = system: ryegrass, Italian; assay: Test C pre-/postemergence herbicide test; assay type: in vivo, Lolium multiflorum
Summary of the method: as §1

[10] = system: wheat; assay: Test A pre-/postemergence herbicide test; assay type: in vivo, Triticum aestivum
Summary of the method: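 Visual injury ratings, 0 = no effect, 100 = complete control, taken ~10 days after treatment against untreated greenhouse controls. Preemergence: directed soil spray onto seeded loam/sand pots. Postemergence: spray onto plants at one- to two-leaf stage, 2–10 cm tall.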

[11] = system: corn; assay: Test C pre-/postemergence herbicide test; assay type: in vivo, Zea mays
Summary of the method: as §1

[12] = system: oilseed rape; assay: Test C pre-/postemergence herbicide test; assay type: in vivo, Brassica napus
Summary of the method: as §1

[13] = system: ragweed; assay: Test C pre-/postemergence herbicide test; assay type: in vivo, Ambrosia elatior; details: Postemergence
Summary of the method: as §1

[14] = Postemergence, 31 g ai/ha, scale 0 (no effect) to 100 (complete control)
[15] = Postemergence, 62 g ai/ha, scale 0 to 100 (0 no effect, 100 complete control)
[16] = Postemergence, 125 g ai/ha, scale 0 to 100 (0 no effect, 100 complete control)
[17] = Postemergence, 250 g ai/ha, scale 0 to 100 (0 no effect, 100 complete control)
[18] = Preemergence, 31 g ai/ha, scale 0 to 100, 0 is no effect and 100 is complete control
[19] = Preemergence, 62 g ai/ha, scale 0 to 100
[20] = Preemergence, 125 g ai/ha, scale 0 to 100 (0 no effect, 100 complete control)

## O=C1NCC(c2ccc(F)c(C(F)(F)F)c2)C1C(=O)Nc1ccccc1F (racemic) [Compound 76]
[1]; [14]
  Plant response rating, Nutsedge, Yellow: 0
[1]; [15]
  Plant response rating, Nutsedge, Yellow: 0
[1]; [16]
  Plant response rating, Nutsedge, Yellow: 0
[1]; [17]
  Plant response rating, Nutsedge, Yellow: 0
[1]; [18]
  Nutsedge, Yellow plant response rating: 0
[1]; [19]
  Plant response rating, Nutsedge, Yellow: 0
[1]; [20]
  Plant response rating, Nutsedge, Yellow: 20
[1]; Preemergence, 250 g ai/ha
  Plant response rating (scale of 0 to 100), Nutsedge, Yellow: 55
[2]
  Plant response rating, Rice: 0
[3]
  Plant response rating, Barnyardgrass: 0
[4]; [14]
  Plant response rating, Johnsongrass: 0
[4]; [15]
  Plant response rating, Johnsongrass: 0
[4]; [16]
  Plant response rating, Johnsongrass: 0
[4]; [17]
  Plant response rating, Johnsongrass: 0
[4]; [18]
  Johnsongrass plant response rating: 20
[4]; [19]
  Plant response rating, Johnsongrass: 45
[4]; [20]
  Plant response rating, Johnsongrass: 45
[4]; Preemergence, 250 g ai/ha
  Plant response rating (scale of 0 to 100), Johnsongrass: 80
[5]; [14]
  Plant response rating, Soybean: 0
[5]; [15]
  Plant response rating, Soybean: 0
[5]; [16]
  Plant response rating, Soybean: 5
[5]; [17]
  Plant response rating, Soybean: 10
[5]; [18]
  Soybean plant response rating: 0
[5]; [19]
  Plant response rating, Soybean: 0
[5]; [20]
  Plant response rating, Soybean: 0
[5]; Preemergence, 250 g ai/ha
  Plant response rating (scale of 0 to 100), Soybean: 0
[6]
  Plant response rating, Sedge, Umbrella: 0
[7]; [14]
  Plant response rating, Pigweed: 5
[7]; [15]
  Plant response rating, Pigweed: 10
[7]; [16]
  Plant response rating, Pigweed: 10
[7]; [17]
  Plant response rating, Pigweed: 30
[7]; [19]
  Plant response rating, Pigweed: 0
[7]; [20]
  Plant response rating, Pigweed: 0
[7]; Preemergence, 250 g ai/ha
  Plant response rating (scale of 0 to 100), Pigweed: 40
[8]
  Plant response rating, Ducksalad: 90
[9]; [14]
  Plant response rating, Ryegrass, Italian: 0
[9]; [15]
  Plant response rating, Ryegrass, Italian: 0
[9]; [16]
  Plant response rating, Ryegrass, Italian: 0
[9]; [17]
  Plant response rating, Ryegrass, Italian: 5
[9]; [18]
  Ryegrass, Italian plant response rating: 0
[9]; [19]
  Plant response rating, Ryegrass, Italian: 25
[9]; [20]
  Plant response rating, Ryegrass, Italian: 40
[9]; Preemergence, 250 g ai/ha
  Plant response rating (scale of 0 to 100), Ryegrass, Italian: 40
[10]; Postemergence, 125 g ai/ha, 0 to 100 scale, 0 no effect, 100 complete control
  Plant response rating, Wheat: 50
[10]; Postemergence, 500 g ai/ha, 0 to 100 scale (0 no effect, 100 complete control)
  Plant response rating, Wheat: 60
[10]; Preemergence, 125 g ai/ha, visual rating on 0 to 100 scale (0 no effect, 100 complete control)
  Wheat plant response rating: 0
[10]; preemergence, 500 g ai/ha, 0 to 100 scale
  Plant response rating, Wheat: 0
[11]; [14]
  Plant response rating, Corn: 0
[11]; [15]
  Plant response rating, Corn: 0
[11]; [16]
  Plant response rating, Corn: 0
[11]; [17]
  Plant response rating, Corn: 0
[11]; [18]
  Corn plant response rating: 0
[11]; [19]
  Plant response rating, Corn: 10
[11]; [20]
  Plant response rating, Corn: 40
[11]; Preemergence, 250 g ai/ha
  Plant response rating (scale of 0 to 100), Corn: 65
[12]; [14]
  Plant response rating, Oilseed Rape: 0
[12]; [15]
  Plant response rating, Oilseed Rape: 0
[12]; [16]
  Plant response rating, Oilseed Rape: 0
[12]; [17]
  Plant response rating, Oilseed Rape: 10
[12]; [18]
  Oilseed Rape plant response rating: 0
[12]; [19]
  Plant response rating, Oilseed Rape: 0
[12]; [20]
  Plant response rating, Oilseed Rape: 30
[12]; Preemergence, 250 g ai/ha
  Plant response rating (scale of 0 to 100), Oilseed Rape: 75
[13]; 31 g ai/ha, scale 0 (no effect) to 100 (complete control)
  Plant response rating, Ragweed: 25
[13]; 62 g ai/ha, scale 0 to 100 (0 no effect, 100 complete control)
  Plant response rating, Ragweed: 40
[13]; 125 g ai/ha, scale 0 to 100 (0 no effect, 100 complete control)
  Plant response rating, Ragweed: 40
[13]; 250 g ai/ha, scale 0 to 100 (0 no effect, 100 complete control)
  Plant response rating, Ragweed: 55
